From paper PMC10584170, “Machine learning-based phenotypic imaging to characterise the targetable biology of Plasmodium falciparum male gametocytes for the development of transmission-blocking antimalarials” (PLOS Pathogens, 2023)
Where two headings read alike, the source gives them in different places.

What was measured:
HepG2 cells = assay: HepG2 cytotoxicity counter-screen; conditions: cytotoxic activity against HepG2 cells
[1] = system: P. falciparum female gametocytes; assay: P. falciparum Dual Gamete Formation Assay (PfDGFA), female readout (Pfs25-positive female gametes); type: cell-based, Plasmodium falciparum NF54; conditions: for HitlevelF: number of replicates with >50% inhibition in the female readout; for Selectivity ratio F: HepG2 Tox50 versus female IC50; for IC50: PfDGFA, 24 h incubation with gametocytes before induction, female gamete readout, read-out: Female IC50
How it was run: (§1)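 Day-14 NF54 gametocytes were incubated with compound for 24 h at 37°C under 1% O2/3% CO2/96% N2. Gametogenesis was triggered with ookinete medium (0.1 μM xanthurenic acid) plus Cy3-anti-Pfs25, and exflagellation was imaged by brightfield after cooling to 4°C then 28°C. Females were imaged by Pfs25 fluorescence 24 h later at 28°C.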

[2] = system: P. falciparum male gametocytes; assay: P. falciparum Dual Gamete Formation Assay (PfDGFA), male readout (exflagellation); type: cell-based, Plasmodium falciparum NF54; conditions: for HitlevelM: number of replicates with >50% inhibition in the male readout; for Selectivity Ratio M: HepG2 Tox50 versus male IC50; for IC50: PfDGFA, 24 h incubation with gametocytes before induction, exflagellation readout, read-out: Male IC50
How it was run: as §1

[3] = 2µM, 24h preincubation with gametocytes prior to induction of gametogenesis, average of replicates
[4] = 2µM, 24h preincubation with gametocytes prior to induction of gametogenesis, replicate R1
[5] = 2µM, 24h preincubation with gametocytes prior to induction of gametogenesis, replicate R3
[6] = 2µM, 24h preincubation with gametocytes prior to induction of gametogenesis, replicate R4
[7] = PfDGFA at 2µM, 24h preincubation with gametocytes, average of replicates
[8] = PfDGFA at 2µM, 24h preincubation with gametocytes, replicate R1
[9] = PfDGFA at 2µM, 24h preincubation with gametocytes, replicate R3
[10] = PfDGFA at 2µM, 24h preincubation with gametocytes, replicate R4
[11] = Plasmodium falciparum, PfDGFA at 2µM, 24h preincubation with gametocytes, average of replicates, read-out: Average inhibition female (%)
[12] = Plasmodium falciparum, PfDGFA at 2µM, 24h preincubation with gametocytes, replicate R1, read-out: % inhibition female (individual replicates) R1
[13] = Plasmodium falciparum, PfDGFA at 2µM, 24h preincubation with gametocytes, replicate R2, read-out: % inhibition female (individual replicates) R2
[14] = Plasmodium falciparum, PfDGFA at 2µM, 24h preincubation with gametocytes, replicate R3, read-out: % inhibition female (individual replicates) R3
[15] = Plasmodium falciparum, PfDGFA at 2µM, 24h preincubation with gametocytes, replicate R4, read-out: % inhibition female (individual replicates) R4
[16] = Plasmodium falciparum, PfDGFA at 2µM, 24h preincubation with gametocytes, average of replicates, read-out: Average inhibition male (%)
[17] = Plasmodium falciparum, PfDGFA at 2µM, 24h preincubation with gametocytes, replicate R1, read-out: % inhibition male (individual replicates) R1
[18] = Plasmodium falciparum, PfDGFA at 2µM, 24h preincubation with gametocytes, replicate R2, read-out: % inhibition male (individual replicates) R2
[19] = Plasmodium falciparum, PfDGFA at 2µM, 24h preincubation with gametocytes, replicate R3, read-out: % inhibition male (individual replicates) R3
[20] = Plasmodium falciparum, PfDGFA at 2µM, 24h preincubation with gametocytes, replicate R4, read-out: % inhibition male (individual replicates) R4
[21] = 2µM, 24h preincubation with gametocytes, average of replicates
[22] = 2µM, 24h preincubation with gametocytes, replicate R1
[23] = 2µM, 24h preincubation with gametocytes, replicate R3
[24] = 2µM, 24h preincubation with gametocytes, replicate R4

Structure (SMILES) | Tox50 (HepG2 cells) [µM] | Selectivity ratio F [1] | IC50 [1] [nM] | Selectivity Ratio M [2] | IC50 [2] [nM] | Average inhibition female (%) [1, 7] [%] | % inhibition female (individual replicates) R1 [1, 8] [%] | % inhibition female (individual replicates) R3 [1, 9] [%] | % inhibition female (individual replicates) R4 [1, 10] [%] | HitlevelF ([1]; 2µM) | Average inhibition male (%) [2, 7] [%] | % inhibition male (individual replicates) R1 [2, 8] [%] | % inhibition male (individual replicates) R4 [2, 10] [%] | HitlevelM ([2]; 2µM) | inhibition at 2 µM [1, 11] [%] | inhibition at 2 µM [1, 12] [%] | inhibition at 2 µM [1, 13] [%] | inhibition at 2 µM [1, 14] [%] | inhibition at 2 µM [1, 15] [%] | IC50 ([1]; Plasmodium falciparum) [nM] | other results
CCc1c(CCNCCCC(C)CCNCCc2ccc(OC)c(OC)c2CC)ccc(OC)c1OC.Cl (stereo not shown) [TCMDC-132065] | 3.92 | 0.73 | 5380 | 2.01 | 1950 |  |  |  |  |  |  |  |  |  |  |  |  |  |  |  | Average inhibition female (%) [1, 3]: 11.1%; % inhibition female (individual replicates) R1 [1, 4]: 14.0%; % inhibition female (individual replicates) R3 [1, 5]: -5.8%; % inhibition female (individual replicates) R4 [1, 6]: 27.9%; HitlevelF ([1]; 2µM, 24h preincubation): 0; Average inhibition male (%) [2, 3]: 50.4%; % inhibition male (individual replicates) R1 [2, 4]: 69.1%; % inhibition male (individual replicates) R3 [2, 5]: 65.3%; % inhibition male (individual replicates) R4 [2, 6]: 65.1%; HitlevelM ([2]; 2µM, 24h preincubation): 3
COc1cccc(CCc2c(CCNCCCCCCNCCc3ccccc3)ccc(OC)c2OC)c1.Cl [TCMDC-132105] | 2.82 | 4.54 | 620 | 2.34 | 1200 | 52.1 | 47.4 | 59.7 | 72.0 | 2 | 79.5 | 90.7 | 99.1 | 3 |  |  |  |  |  |  | % inhibition male (individual replicates) R3 [2, 9]: 81.0%
COc1ccc(CNC2CCN(C)CC2)cc1-c1ccc(S(=O)(=O)NCc2ccccc2)s1.O=C(O)C(F)(F)F [TCMDC-132253] | 5.43 | 1.37 | 3960 | 3.9 | 1390 | 28.1 | 31.4 | 13.9 | 24.4 | 0 | 82.6 | 86.4 | 89.6 | 4 |  |  |  |  |  |  | % inhibition male (individual replicates) R3 [2, 9]: 70.7%
COc1ccc(CNC2CCN(C)CC2)cc1-c1ccc(S(=O)(=O)NCc2ccccc2)c(F)c1.O=C(O)C(F)(F)F [TCMDC-132262] | 3.59 | 0.84 | 4280 | 1.94 | 1850 | 25.6 | 21.9 | 30.7 | 17.0 | 0 | 74.3 | 68.8 | 79.4 | 3 |  |  |  |  |  |  | 
O=C(c1ccc(-c2cnc3[nH]cc(-c4ccc(C(=O)N5CCOCC5)cc4)c3c2)cc1)N1CCOCC1 [TCMDC-132781] | 28.99 | 2.9 |  | 66.32 |  |  |  |  |  | 0 |  |  |  | 4 | 9.1 | 7.2 | 16.3 | 1.6 | 11.4 | > 10000 | inhibition at 2 µM [2, 16]: 77%; inhibition at 2 µM [2, 17]: 90.7%; inhibition at 2 µM [2, 18]: 89.1%; inhibition at 2 µM [2, 19]: 77.8%; inhibition at 2 µM [2, 20]: 50.2%; IC50 ([2]; Plasmodium falciparum): 440 nM
CNCCNCc1ccc(-c2ccc(-c3nc4cccc(C)c4[nH]3)cc2)cc1.O=C(O)C(F)(F)F [TCMDC-132837] | 13.18 | 1.52 | 8690 | 7.9 | 1670 | 30.6 | 20.0 | 47.7 | 20.5 | 0 | 81.2 | 79.2 | 94.2 | 4 |  |  |  |  |  |  | % inhibition male (individual replicates) R3 [2, 9]: 67.7%
CNCCNCc1ccc(-c2ccc(-c3nc4cc(C(F)(F)F)ccc4[nH]3)s2)cc1.O=C(O)C(F)(F)F [TCMDC-132838] | 13.1 | 1.31 |  | 9.9 | 1320 |  |  |  |  |  |  |  |  |  |  |  |  |  |  |  | Average inhibition female (%) [1, 21]: 23.9%; % inhibition female (individual replicates) R1 [1, 22]: 24.8%; % inhibition female (individual replicates) R3 [1, 23]: 17.6%; % inhibition female (individual replicates) R4 [1, 24]: 33.8%; Average inhibition male (%) [2, 21]: 96.4%; % inhibition male (individual replicates) R1 [2, 22]: 96.0%; % inhibition male (individual replicates) R3 [2, 23]: 93.3%; % inhibition male (individual replicates) R4 [2, 24]: 98.9%
FC(F)(F)c1ccc2[nH]c(-c3ccc(-c4cccc(CNCCN5CCNCC5)c4)cc3)nc2c1.O=C(O)C(F)(F)F [TCMDC-132864] | 20.55 | 3.99 |  | 12.52 |  |  |  |  |  | 0 |  |  |  | 4 | 20.5 | 25.8 | 24.6 | -15.8 | 47.4 | 5150 | inhibition at 2 µM [2, 16]: 82.4%; inhibition at 2 µM [2, 17]: 79.2%; inhibition at 2 µM [2, 18]: 89.7%; inhibition at 2 µM [2, 19]: 65.9%; inhibition at 2 µM [2, 20]: 94.9%; IC50 ([2]; Plasmodium falciparum): 1640 nM
FC(F)(F)c1ccc2[nH]c(-c3ccc(-c4ccc(CNCCN5CCNCC5)cc4)cc3)nc2c1.O=C(O)C(F)(F)F [TCMDC-132865] | 13.76 | 2.26 |  | 9.44 |  |  |  |  |  | 0 |  |  |  | 3 | 29.2 | 27.7 | 31 | 31 | 27.1 | 6080 | inhibition at 2 µM [2, 16]: 69.5%; inhibition at 2 µM [2, 17]: 60.9%; inhibition at 2 µM [2, 18]: 79.2%; inhibition at 2 µM [2, 19]: 39.1%; inhibition at 2 µM [2, 20]: 98.9%; IC50 ([2]; Plasmodium falciparum): 1460 nM
Fc1ccc2[nH]c(-c3ccc(-c4ccc(CNCCN5CCNCC5)cc4)cc3)nc2c1.O=C(O)C(F)(F)F [TCMDC-132866] | 28.84 | 2.88 |  | 12.07 |  |  |  |  |  | 0 |  |  |  | 3 | 11.4 | 18 | 1.6 | 12.7 | 13.5 | > 10000 | inhibition at 2 µM [2, 16]: 63.5%; inhibition at 2 µM [2, 17]: 59%; inhibition at 2 µM [2, 18]: 70.4%; inhibition at 2 µM [2, 19]: 32.6%; inhibition at 2 µM [2, 20]: 92.2%; IC50 ([2]; Plasmodium falciparum): 2390 nM
